± gives the expanded uncertainty stated by the source.
Key:
[1] = 101.33 kPa, Liquid
[2] = xn = mol fraction of the nth substance listed; conditions: 101 kPa, Liquid

CCOCC [diethyl ether] showed a mass density ([1]; 298.15 K) of 707.79 ± 0.68 kg/m3.

For CCOCC [diethyl ether] + CN(C)C=O, the mass density ([2]; 298.15 K, x2 = 0.0575) was 720.7 ± 0.65 kg/m3, the mass density ([2]; 298.15 K, x2 = 0.1033) was 730.11 ± 0.63 kg/m3 and the mass density ([2]; 298.15 K, x2 = 0.1606) was 742.64 ± 0.61 kg/m3. The mass density ([2]; 298.15 K, x2 = 0.2076) was 752.93 ± 0.59 kg/m3, the mass density ([2]; 298.15 K, x2 = 0.2524) was 762.76 ± 0.57 kg/m3 and the mass density ([2]; 298.15 K, x2 = 0.2979) was 772.93 ± 0.56 kg/m3. The mass density ([2]; 298.15 K, x2 = 0.3683) was 788.85 ± 0.53 kg/m3, the mass density ([2]; 298.15 K, x2 = 0.4058) was 797.64 ± 0.52 kg/m3 and the mass density ([2]; 298.15 K, x2 = 0.4414) was 805.85 ± 0.5 kg/m3. For the same molecule, the mass density ([2]; 298.15 K, x2 = 0.4932) was 818.09 ± 0.48 kg/m3, the mass density ([2]; 298.15 K, x2 = 0.5094) was 821.95 ± 0.48 kg/m3 and the mass density ([2]; 298.15 K, x2 = 0.53) was 826.82 ± 0.47 kg/m3. It also gave a mass density ([2]; 298.15 K, x2 = 0.5595) of 833.95 ± 0.45 kg/m3, a mass density ([2]; 298.15 K, x2 = 0.6229) of 849.26 ± 0.42 kg/m3 and a mass density ([2]; 298.15 K, x2 = 0.643) of 854.21 ± 0.41 kg/m3. For the same molecule, the mass density ([2]; 298.15 K, x2 = 0.717) was 872.52 ± 0.37 kg/m3, the mass density ([2]; 298.15 K, x2 = 0.7584) was 882.84 ± 0.35 kg/m3 and the mass density ([2]; 298.15 K, x2 = 0.8124) was 896.81 ± 0.33 kg/m3. It also gave a mass density ([2]; 298.15 K, x2 = 0.8523) of 906.61 ± 0.31 kg/m3, a mass density ([2]; 298.15 K, x2 = 0.9295) of 926.56 ± 0.27 kg/m3 and a mass density ([2]; 298.15 K, x2 = 0.9655) of 936.09 ± 0.25 kg/m3.

Molecule CC(C)OC(C)C [diisopropyl ether] has a mass density ([1]; 298.15 K) of 718.51 ± 0.66 kg/m3, a mass density ([1]; 313.15 K) of 702.59 ± 0.68 kg/m3 and a mass density ([1]; 328.15 K) of 686.2 ± 0.7 kg/m3.

Work on CC(C)OC(C)C [diisopropyl ether] + CN(C)C=O yielded a mass density ([2]; 298.15 K, x2 = 0.0551) of 726.89 ± 0.64 kg/m3, a mass density ([2]; 298.15 K, x2 = 0.0998) of 733.84 ± 0.63 kg/m3 and a mass density ([2]; 298.15 K, x2 = 0.1567) of 742.64 ± 0.61 kg/m3. The mass density ([2]; 298.15 K, x2 = 0.2133) was 751.81 ± 0.59 kg/m3, the mass density ([2]; 298.15 K, x2 = 0.2581) was 759.64 ± 0.58 kg/m3 and the mass density ([2]; 298.15 K, x2 = 0.3049) was 767.92 ± 0.56 kg/m3. It also gave a mass density ([2]; 298.15 K, x2 = 0.3548) of 777.09 ± 0.54 kg/m3, a mass density ([2]; 298.15 K, x2 = 0.4003) of 785.84 ± 0.53 kg/m3 and a mass density ([2]; 298.15 K, x2 = 0.4401) of 793.67 ± 0.51 kg/m3. For the same molecule, the mass density ([2]; 298.15 K, x2 = 0.4868) was 803.29 ± 0.5 kg/m3, the mass density ([2]; 298.15 K, x2 = 0.5049) was 807.13 ± 0.49 kg/m3 and the mass density ([2]; 298.15 K, x2 = 0.5285) was 812.21 ± 0.48 kg/m3. The mass density ([2]; 298.15 K, x2 = 0.5548) was 818.02 ± 0.47 kg/m3, the mass density ([2]; 298.15 K, x2 = 0.6182) was 832.62 ± 0.44 kg/m3 and the mass density ([2]; 298.15 K, x2 = 0.653) was 840.97 ± 0.42 kg/m3. For the same molecule, the mass density ([2]; 298.15 K, x2 = 0.7137) was 856.34 ± 0.39 kg/m3, the mass density ([2]; 298.15 K, x2 = 0.7611) was 869.01 ± 0.37 kg/m3 and the mass density ([2]; 298.15 K, x2 = 0.801) was 880.32 ± 0.35 kg/m3. It also gave a mass density ([2]; 298.15 K, x2 = 0.8447) of 893.01 ± 0.32 kg/m3, a mass density ([2]; 298.15 K, x2 = 0.9027) of 911.02 ± 0.29 kg/m3 and a mass density ([2]; 298.15 K, x2 = 0.9502) of 926.7 ± 0.26 kg/m3. It also gave a mass density ([2]; 313.15 K, x2 = 0.0551) of 711.08 ± 0.66 kg/m3, a mass density ([2]; 313.15 K, x2 = 0.0998) of 718.04 ± 0.64 kg/m3 and a mass density ([2]; 313.15 K, x2 = 0.1567) of 726.81 ± 0.63 kg/m3. The mass density ([2]; 313.15 K, x2 = 0.2133) was 736.08 ± 0.61 kg/m3, the mass density ([2]; 313.15 K, x2 = 0.2581) was 743.93 ± 0.59 kg/m3 and the mass density ([2]; 313.15 K, x2 = 0.3049) was 752.25 ± 0.58 kg/m3. It also gave a mass density ([2]; 313.15 K, x2 = 0.3548) of 761.49 ± 0.56 kg/m3, a mass density ([2]; 313.15 K, x2 = 0.4003) of 770.29 ± 0.55 kg/m3 and a mass density ([2]; 313.15 K, x2 = 0.4401) of 778.18 ± 0.53 kg/m3. For the same molecule, the mass density ([2]; 313.15 K, x2 = 0.4868) was 787.92 ± 0.52 kg/m3, the mass density ([2]; 313.15 K, x2 = 0.5049) was 791.8 ± 0.51 kg/m3 and the mass density ([2]; 313.15 K, x2 = 0.5285) was 796.95 ± 0.5 kg/m3. For the same molecule, the mass density ([2]; 313.15 K, x2 = 0.5548) was 802.83 ± 0.49 kg/m3, the mass density ([2]; 313.15 K, x2 = 0.6182) was 817.65 ± 0.46 kg/m3 and the mass density ([2]; 313.15 K, x2 = 0.653) was 826.05 ± 0.44 kg/m3. The mass density ([2]; 313.15 K, x2 = 0.7137) was 841.67 ± 0.41 kg/m3, the mass density ([2]; 313.15 K, x2 = 0.7611) was 854.62 ± 0.39 kg/m3 and the mass density ([2]; 313.15 K, x2 = 0.801) was 866.12 ± 0.37 kg/m3. It also gave a mass density ([2]; 313.15 K, x2 = 0.8447) of 879.09 ± 0.34 kg/m3, a mass density ([2]; 313.15 K, x2 = 0.9027) of 897.56 ± 0.31 kg/m3 and a mass density ([2]; 313.15 K, x2 = 0.9502) of 913.74 ± 0.28 kg/m3. It also gave a mass density ([2]; 328.15 K, x2 = 0.0551) of 694.81 ± 0.67 kg/m3, a mass density ([2]; 328.15 K, x2 = 0.0998) of 701.68 ± 0.66 kg/m3 and a mass density ([2]; 328.15 K, x2 = 0.1567) of 710.25 ± 0.64 kg/m3. The mass density ([2]; 328.15 K, x2 = 0.2133) was 719.61 ± 0.63 kg/m3, the mass density ([2]; 328.15 K, x2 = 0.2581) was 727.41 ± 0.61 kg/m3 and the mass density ([2]; 328.15 K, x2 = 0.3049) was 735.75 ± 0.6 kg/m3. It also gave a mass density ([2]; 328.15 K, x2 = 0.3548) of 744.95 ± 0.58 kg/m3, a mass density ([2]; 328.15 K, x2 = 0.4003) of 753.71 ± 0.56 kg/m3 and a mass density ([2]; 328.15 K, x2 = 0.4401) of 761.59 ± 0.55 kg/m3. The mass density ([2]; 328.15 K, x2 = 0.4868) was 771.3 ± 0.54 kg/m3, the mass density ([2]; 328.15 K, x2 = 0.5049) was 775.18 ± 0.53 kg/m3 and the mass density ([2]; 328.15 K, x2 = 0.5285) was 780.34 ± 0.52 kg/m3. The mass density ([2]; 328.15 K, x2 = 0.5548) was 786.22 ± 0.51 kg/m3, the mass density ([2]; 328.15 K, x2 = 0.6182) was 801.09 ± 0.48 kg/m3 and the mass density ([2]; 328.15 K, x2 = 0.653) was 809.51 ± 0.46 kg/m3. The mass density ([2]; 328.15 K, x2 = 0.7137) was 825.18 ± 0.43 kg/m3, the mass density ([2]; 328.15 K, x2 = 0.7611) was 838.24 ± 0.41 kg/m3 and the mass density ([2]; 328.15 K, x2 = 0.801) was 849.8 ± 0.39 kg/m3. It also gave a mass density ([2]; 328.15 K, x2 = 0.8447) of 862.93 ± 0.36 kg/m3, a mass density ([2]; 328.15 K, x2 = 0.9027) of 881.59 ± 0.33 kg/m3 and a mass density ([2]; 328.15 K, x2 = 0.9502) of 897.98 ± 0.3 kg/m3.

In the case of CN(C)C=O [dimethylformamide], the mass density ([1]; 298.15 K) is reported as 943.85 ± 0.23 kg/m3, the mass density ([1]; 313.15 K) is reported as 930.98 ± 0.25 kg/m3 and the mass density ([1]; 328.15 K) is reported as 915.07 ± 0.27 kg/m3. The mass density ([1]; 343.15 K) was 900.41 ± 0.29 kg/m3 and the mass density ([1]; 358.15 K) was 885.68 ± 0.32 kg/m3.

Work on CCCCCOCCCCC [dipentyl ether] yielded a mass density ([1]; 298.15 K) of 778.96 ± 0.73 kg/m3, a mass density ([1]; 313.15 K) of 768.65 ± 0.75 kg/m3 and a mass density ([1]; 328.15 K) of 756.32 ± 0.77 kg/m3. For the same molecule, the mass density ([1]; 343.15 K) was 743.97 ± 0.79 kg/m3 and the mass density ([1]; 358.15 K) was 731.37 ± 0.81 kg/m3.

In the case of CCCOCCC [dipropyl ether], the mass density ([1]; 298.15 K) is reported as 741.94 ± 0.64 kg/m3, the mass density ([1]; 313.15 K) is reported as 727.87 ± 0.66 kg/m3 and the mass density ([1]; 328.15 K) is reported as 713.73 ± 0.67 kg/m3. For the same molecule, the mass density ([1]; 343.15 K) was 699.61 ± 0.69 kg/m3 and the mass density ([1]; 358.15 K) was 684.92 ± 0.7 kg/m3.

— the NIST ThermoML archive (doi:10.1016/j.jct.2005.01.002)
